For 5 compounds, inhibition results are on record in patent publication US6080761A, “Inhibition of smooth muscle cell migration by (R)-amlodipine” (Pfizer Inc., priority 1993, dated 2000).

In this experiment the test system is rabbit aortic smooth muscle cells. The experiment can be described thus: aortic explant assay of smooth muscle cell migration induced by platelet-derived growth factor. The experiment is classed as cell-based. Conditions: Oryctolagus cuniculus, read-out: % inhibition of SMC migration from explants. On the procedure: In this method uniform pieces of intimal/medial tissue from rabbit aorta were cultured in individual wells of a well plate. Migration was induced by addition of platelet-derived growth factor to the culture. Following a lag phase of several days the smooth muscle cells migrated from the explanted tissue and proliferated.
The distance covered by the outgrowing smooth muscle cells was measured.
This assay was carried out with varying concentrations of test compound added to the culture. The compounds thus tested were the maleate salts of the racemic mixture of R(+) and S(-) amlodipine, the maleate salts of R(+) and S(-) amlodipine separately and the known calcium channel-blocking agents nitrendipine and verapamil.
The results obtained are shown in Table 1, in which the percentage inhibition of smooth muscle cell migration for concentrations of test compound of 1 nanomole and 0.1 nanomole are recorded.

The mark [1] stands for this setting: 0.1 nM test compound, rabbit aortic explants, PDGF-induced migration.
Setting [2] is: 1 nM test compound, rabbit aortic explants, PDGF-induced migration.

Where two headings read alike, the source gives them in different places.

Consider `CCOC(=O)C1=C(C)NC(C)=C(C(=O)OC)C1c1cccc([N+](=O)[O-])c1` (stereo not shown) [Nitrendipine, nitrendipine], for which the inhibition at 0.0001 µM under setting [1] came out at 14%. The inhibition at 0.001 µM under setting [2] turned out to be 28%.
With `CCOC(=O)C1=C(COCCN)NC(C)=C(C(=O)OC)C1c1ccccc1Cl` (racemic) [Amlodipine (racemate), 3-ethyl-5-methyl-2-(2-aminoethoxy-methyl)-4-(2-chlorophenyl)-1,4-dihydro-6-methylpyridine-3,5-dicarboxylate], the inhibition at 0.0001 µM under setting [1] came to 39%. In addition, the inhibition at 0.001 µM under setting [2] was found to be 33%.
As to `COc1ccc(CCN(C)CCCC(C#N)(c2ccc(OC)c(OC)c2)C(C)C)cc1OC` (stereo not shown) [Verapamil, verapamil], the inhibition at 0.0001 µM turned out to be 13% and the inhibition at 0.001 µM was 22%.
On to `CCOC(=O)C1=C(COCCN)NC(C)=C(C(=O)OC)[C@H]1c1ccccc1Cl` [Amlodipine R (+), R(+) isomer of 3-ethyl-5-methyl-2-(2-aminoethoxy-methyl)-4-(2-chlorophenyl)-1,4-dihydro-6-methylpyridine-3,5-dicarboxylate], for which the inhibition at 0.0001 µM under setting [1] came to 36%. Moreover, the inhibition at 0.001 µM under setting [2] worked out at 39%.
On the same counts, the results for `CCOC(=O)C1=C(COCCN)NC(C)=C(C(=O)OC)[C@@H]1c1ccccc1Cl` [Amlodipine S (-)] are 21% and 30%.
